# According to EPA's ToxValDB 9.5 (doi:10.2903/j.efsa.2018.5465):
# Assays:
# Typhlodromus pyri = experiment: LR50; higher = less toxic; conditions: acute; mortality
# Oncorhynchus mykiss = conditions: acute; duration: 96 hours; mortality
# Canidae = conditions: chronic; duration: 1 years; Dog Other; clinical signs
# Tagia sp. = conditions: chronic/long-term; duration: 56 days
# Folsomia candida = conditions: chronic/long-term; duration: 28 days
# Apis mellifera = conditions: acute, mortality
# Daphnia magna = conditions: chronic/long-term; duration: 21 days
# Colinus virginianus = conditions: reproduction developmental
# Coturnix japonica = conditions: acute; oral; mortality
smiles,measurement,setting,value
"CCN(CC)C(=O)[C@@H](C)Oc1cccc2ccccc12 [(R)-N,N-Diethyl-2-(1-naphthyloxy)propionamide]",LR50,Typhlodromus pyri,> 4140 g/ha
same,LC50,Oncorhynchus mykiss,11.2 µg/mL
same,NOAEL,Canidae,50 mg/kg-day
same,NOEC,Tagia sp.,17.1 mg/kg
same,NOEC,Folsomia candida,47.7 mg/kg
same,LD50,Apis mellifera; dermal,> 110 µg/piece
same,LD50,"Apis mellifera; oral, unspecified",> 110 µg/piece
same,NOEC,Daphnia magna,0.1 mg/L
same,LD50,"Rattus norvegicus; acute, oral, mortality",> 2000 mg/kg-day
same,NOAEL,"Rattus norvegicus; chronic, duration: 2 years, body weight",30 mg/kg-day
same,NOAEL,"Rattus norvegicus; subchronic, duration: 90 days, oral, hematological",46 mg/kg-day
same,NOAEL,Colinus virginianus,309 mg/kg-day
same,LD50,Coturnix japonica,> 2000 mg/kg-day
